In patent US9999222B2, “Herbicidal combination comprising azines” (BASF SE, priority 2014, dated 2018):

Tests used:
Assay in all cases: Greenhouse test, post-emergence treatment
Conditions in all cases: application rate 0.5 kg/ha, scale 0 to 100
ABUTH = type: in vivo, Abutilon theophrasti
Source text: (§1) The culture containers used were plastic flowerpots containing loamy sand with approximately 3.0% of humus as the substrate. The seeds of the test plants were sown separately for each species.
(§2) For the post-emergence treatment, the test plants were first grown to a height of […], depending on the plant habit, and only then treated with the active ingredients which had been suspended or emulsified in water. For this purpose, the test plants were either sown directly and grown in the same containers, or they were first grown separately as seedlings and transplanted into the test containers a few days prior to treatment.
(§3) Depending on the species, the plants were kept at 10-25° C. or 20-35° C., respectively.
(§4) The test period extended over 2 to 4 weeks. During this time, the plants were tended, and their response to the individual treatments was evaluated.
(§5) Evaluation was carried out using a scale from 0 to 100. 100 means no emergence of the plants, or complete destruction of at least the aerial moieties, and 0 means no damage, or normal course of growth. A moderate herbicidal activity is given at values of at least 60, a good herbicidal activity is given at values of at least 70, and a very good herbicidal activity is given at values of at least 85.

AMARE = type: in vivo, Amaranthus retroflexus
Source text: as §1, §2, §3, §4, §5

ECHCG = type: in vivo, Echinocloa crus-galli
Source text: as §1, §2, §3, §4, §5

CC(c1nc(N)nc(Nc2c(F)c(F)cc(F)c2F)n1)C1CC1 (stereo not drawn) [Example 5, 6-(1-cyclopropylethyl)-N4-(2,3,5,6-tetrafluorophenyl)-1,3,5-triazine-2,4-diamine]
herbicidal activity (ABUTH): very good herbicidal activity (a very good herbicidal activity is given at values of at least 85) | herbicidal activity (AMARE): very good herbicidal activity (a very good herbicidal activity is given at values of at least 85) | herbicidal activity (ECHCG): very good herbicidal activity (a very good herbicidal activity is given at values of at least 85)
